Measured values taken from patent US20140377340A1, “HLA-DR BINDING PEPTIDES AND THEIR USES” (priority 2007, published 2014).

How the values were obtained:
purified HLA DRB1*0101 = molecular target: T1, purified HLA DRB1*0101 (Homo sapiens, UniProt P01903+P01911, A100R/D57E/F55L/F60I/F76Y/I96L/L162R/M171V/P40L/Q125E/R42F/V115G/Y59C); experiment: HLA-DR radioligand binding inhibition assay, DRB1*0101; conditions: IC50 nM purified HLA DRB1 *0101, purified HLA DRB1*0101
T1 construct: purified from EBV transformed homozygous cell lines or single MHC allele transfected 721.221, C1R, or fibroblast lines; made in house
Outline: (§1)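 Bound radioactivity is read after 3-hour capture of complexes in 0.05% NP40/PBS on antibody-coated plates. Binding reactions pair 1-10 nM labeled peptide with 1 μM to 1 nM HLA-DR for two days.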

purified HLA DRB1*0405 = molecular target: T2, purified HLA DRB1*0405 (Homo sapiens, UniProt P01903+P01911, A100R/A169T/D86S/F76Y/I96L/K127E/L162R/M171V/N62H/P40V/Q125Y/R42H/S133A/S149N/S66Y/V115G/V209L/W38E); experiment: HLA-DR radioligand binding inhibition assay, DRB1*0405; conditions: IC50 nM purified HLA DRB1 *0405, purified HLA DRB1*0405
T2 construct: purified from EBV transformed homozygous cell lines or single MHC allele transfected 721.221, C1R, or fibroblast lines; made in house
Outline: as §1

purified HLA DRB1*1101 = molecular target: T3, purified HLA DRB1*1101 (Homo sapiens, UniProt P01903+P01911, A100R/A169T/A87E/I96F/K41T/L162R/M171V/P40S/Q125H/Q178H/Q39Y/Q99D/R42S/S66Y/T262R/V115G/W38E); experiment: HLA-DR radioligand binding inhibition assay, DRB1*1101; conditions: IC50 nM purified HLA DRB1 *1101, purified HLA DRB1*1101
T3 construct: purified from EBV transformed homozygous cell lines or single MHC allele transfected 721.221, C1R, or fibroblast lines; made in house
T3 sequence (P01903 26-254, other chains not shown): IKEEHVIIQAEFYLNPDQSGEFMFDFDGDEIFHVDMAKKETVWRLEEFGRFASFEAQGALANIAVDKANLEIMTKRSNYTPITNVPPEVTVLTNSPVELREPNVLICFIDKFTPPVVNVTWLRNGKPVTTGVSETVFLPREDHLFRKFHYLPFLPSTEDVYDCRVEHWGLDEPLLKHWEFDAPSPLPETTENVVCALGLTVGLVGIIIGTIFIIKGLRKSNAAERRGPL
Outline: as §1

purified HLA DRB4*0101 = molecular target: T4, purified HLA DRB4*0101 (Homo sapiens, UniProt P01903+P13762, G164S); experiment: HLA-DR radioligand binding inhibition assay, DRB4*0101; conditions: IC50 nM purified HLA DRB4 *0101, purified HLA DRB4*0101
T4 construct: purified from EBV transformed homozygous cell lines or single MHC allele transfected 721.221, C1R, or fibroblast lines; made in house
Procedure: (§2) Instead, wells of an opaque white 96-well Optiplate (Packard) are coated with 3 μg (100 μl@ 30 μg/ml) of HLA-specific antibody (Ab) that “capture” complexes of radiolabeled MHC and unlabeled peptide transferred from the molecular binding assay plate in 100 μl of 0.05% NP40/PBS. After a 3-hour incubation period, the supernatant is decanted and scintillation fluid (Microscint 20) added. Captured complexes are then measured on a microplate scintillation and luminescence counter (TopCount NXTTM; Packard).
(§3) HLA-DR purification. Fifteen distinct HLA-DR molecules were used in quantitative assays to measure the binding of peptides to solubilized HLA-DR molecules. […] Briefly, columns of inactivated Sepharose CL4B and Protein A Sepharose were used as pre-columns. HLA-DR molecules were captured by passage of lysates over LB3.1 monoclonal antibody (anti-HLA-DRA) columns. Antibody columns were washed with 10 mM Tris-HCL, pH8.0 with 1% (v/v) NP-40, followed by PBS containing 0.4% (w/v) n-octylglucoside.
(§4) Briefly, 1-10 nM of radiolabeled peptide was co-incubated for 2 days at either room temperature or 37° C. with 1 μM to 1 nM purified HLA-DR molecules in the presence of a cocktail of protease inhibitors. Assays were performed at various pH conditions, ranging from pH 4 to pH 7. […] After incubation, the percentage of HLA-DR-bound radioactivity is determined by capturing HLA-DR/peptide complexes on Optiplates (Packard Instruments, Meriden, Conn.) coated with the LB3.1 antibody and determining bound counts per minute using the TopCount microscintillation counter (Packard Instruments).

purified HLA DRB5*0101 = molecular target: T5, purified HLA DRB5*0101 (Homo sapiens, UniProt P01903+Q30154); experiment: HLA-DR radioligand binding inhibition assay, DRB5*0101; conditions: IC50 nM purified HLA DRB5 *0101, purified HLA DRB5*0101
T5 construct: purified from EBV transformed homozygous cell lines or single MHC allele transfected 721.221, C1R, or fibroblast lines; made in house
Outline: as §1

purified HLA DRB1*0401 = molecular target: T6, purified HLA DRB1*0401 (Homo sapiens, UniProt P01903+P01911, A100K/A169T/F76Y/I96L/K127E/L162R/M171V/N62H/P40V/Q125Y/R42H/S133A/S149N/S66Y/V115G/V209L/W38E); experiment: HLA-DR radioligand binding inhibition assay, DRB1*0401; conditions: IC50 nM purified HLA DRB1 *0401, purified HLA DRB1*0401
T6 construct: purified from EBV transformed homozygous cell lines or single MHC allele transfected 721.221, C1R, or fibroblast lines; made in house
Outline: as §1

purified HLA DRB1*1302 = molecular target: T7, purified HLA DRB1*1302 (Homo sapiens, UniProt P01903+P01911, A100E/A169T/K41T/L162R/M171V/P40S/Q125H/Q178H/Q39Y/Q99D/R42S/S66N/T262R/V115G/W38E/Y61H); experiment: HLA-DR radioligand binding inhibition assay, DRB1*1302
T7 construct: purified from EBV transformed homozygous cell lines or single MHC allele transfected 721.221, C1R, or fibroblast lines; made in house
Outline: as §1

purified HLA DRB1*1501 = molecular target: T8, purified HLA DRB1*1501 (Homo sapiens, UniProt P01903+P01911); experiment: HLA-DR radioligand binding inhibition assay, DRB1*1501
T8 construct: purified from EBV transformed homozygous cell lines or single MHC allele transfected 721.221, C1R, or fibroblast lines; made in house
Procedure: as §2, §3, §4

purified HLA DRB1*0404 = molecular target: T9, purified HLA DRB1*0404 (Homo sapiens, UniProt P01903+P01911, A100R/A169T/F76Y/I96L/K127E/L162R/M171V/N62H/P40V/Q125Y/R42H/S133A/S149N/S66Y/V209L/W38E); experiment: HLA-DR radioligand binding inhibition assay, DRB1*0404; conditions: IC50 nM purified HLA DRB1 *0404, purified HLA DRB1*0404
T9 construct: purified from EBV transformed homozygous cell lines or single MHC allele transfected 721.221, C1R, or fibroblast lines; made in house
Procedure: as §2, §3, §4

purified HLA DRB1*0701 = molecular target: T10, purified HLA DRB1*0701 (Homo sapiens, UniProt P01903+P01911, A100R/A102G/A103Q/D57E/D86V/E43K/F76Y/K127E/L162R/M171V/P40G/Q125H/Q99D/R33Q/R42Y/R54Q/S133A/S66F/T210M/V115G/Y107V/Y59L/Y89S); experiment: HLA-DR radioligand binding inhibition assay, DRB1*0701; conditions: IC50 nM purified HLA DRB1 *0701, purified HLA DRB1*0701
T10 construct: purified from EBV transformed homozygous cell lines or single MHC allele transfected 721.221, C1R, or fibroblast lines; made in house
Outline: as §1

Row | Structure (SMILES) | IC50 (purified HLA DRB1*0101) [nM] | IC50 (purified HLA DRB1*0405) [nM] | IC50 (purified HLA DRB1*1101) [nM] | IC50 (purified HLA DRB4*0101) [nM] | IC50 (purified HLA DRB5*0101) [nM] | IC50 (purified HLA DRB1*0401) [nM] | IC50 (purified HLA DRB1*1302) [nM] | IC50 (purified HLA DRB1*1501) [nM] | IC50 (purified HLA DRB1*0404) [nM] | IC50 (purified HLA DRB1*0701) [nM]
1 | CC(C)C[C@H](NC(=O)[C@@H](NC(=O)[C@@H](NC(=O)[C@@H]1CCCN1C(=O)[C@H](CC(=O)O)NC(=O)[C@H](CO)NC(=O)[C@H](CCCNC(=N)N)NC(=O)[C@H](CC(N)=O)NC(=O)[C@H](C)NC(=O)[C@H](CO)NC(=O)[C@@H](NC(=O)[C@H](CO)NC(=O)[C@H](CC(N)=O)NC(=O)[C@@H](N)CCC(N)=O)C(C)C)C(C)C)[C@@H](C)O)C(=O)N[C@@H](CC(=O)O)C(=O)O [Peptide 9019.0136] | 240 | > 20000 | > 20000 | 2100 | 5820 |  |  |  |  | 
2 | CC(C)C[C@H](NC(=O)[C@H](CC(N)=O)NC(=O)[C@H](C)NC(=O)CNC(=O)[C@H](CO)NC(=O)[C@H](CC(C)C)NC(=O)[C@H](Cc1ccc(O)cc1)NC(=O)[C@H](CO)NC(=O)[C@@H](N)CO)C(=O)N[C@@H](CC(N)=O)C(=O)N[C@@H](CC(C)C)C(=O)N[C@@H](CO)C(=O)N[C@@H](CS)C(=O)N[C@@H](Cc1c[nH]cn1)C(=O)N[C@@H](CO)C(=O)O [Peptide 9019.0137] | 4 | 7820 | > 20000 | 42 | 14100 | 580 | 37 | 13000 |  | 
3 | CC[C@H](C)[C@H](NC(=O)[C@@H](N)CO)C(=O)N[C@H](C(=O)N[C@H](C(=O)N[C@@H](CO)C(=O)N[C@@H](C)C(=O)N[C@@H](CO)C(=O)NCC(=O)N[C@H](C(=O)N[C@@H](CO)C(=O)N1CCC[C@H]1C(=O)NCC(=O)N[C@@H](CC(C)C)C(=O)N[C@@H](CO)C(=O)N[C@@H](C)C(=O)O)[C@@H](C)O)C(C)C)[C@@H](C)O [Peptide 9019.0143] | 2810 |  | 3320 |  | 15100 | 75 |  | 3110 | 11 | 1560
4 | CC(C)C[C@H](NC(=O)[C@H](CC(C)C)NC(=O)[C@H](CCC(N)=O)NC(=O)[C@H](CC(C)C)NC(=O)[C@H](CCCNC(=N)N)NC(=O)[C@H](CO)NC(=O)[C@H](CCCCN)NC(=O)[C@H](CCCCN)NC(=O)[C@@H](NC(=O)[C@@H]1CCCN1C(=O)[C@H](CCC(=O)O)NC(=O)[C@@H](N)CC(C)C)C(C)C)C(=O)NCC(=O)N[C@@H](C)C(=O)N[C@H](C(=O)O)[C@@H](C)O [Peptide 9019.0155] |  | 13700 |  |  | 731 | 5110 |  |  | 695 | 2150
5 | CC(C)C[C@H](NC(=O)[C@H](CCCNC(=N)N)NC(=O)[C@H](CCC(=O)O)NC(=O)[C@@H]1CCCN1)C(=O)N[C@@H](C)C(=O)N[C@@H](C)C(=O)N[C@@H](CS)C(=O)NCC(=O)N1CCC[C@H]1C(=O)N1CCC[C@H]1C(=O)N1CCC[C@H]1C(=O)N[C@H](C(=O)N[C@@H](C)C(=O)N1CCC[C@H]1C(=O)N1CCC[C@H]1C(=O)O)C(C)C [Peptide 9019.0179] | 28 |  |  | 4460 |  | 5550 |  | 4050 |  | > 20000
